In patent publication US10953113B2, “Imaging agents and methods of use” (The Board of Regents of the University of Oklahoma, priority 2016, dated 2021):
Entries after “also recorded” stand apart in the source; their conditions may differ.

How the values were obtained:
[1] = Circulation kinetics of ^18F-FGA in mice; format: in vivo, CD-1 mice; details: i.v., elimination phase, 30-180 minute time points
Description: Five male CD-1 mice were injected with 100 μCi of ^18F-FGA intravenously via the tail vein. At 0, 30, 60, 90, 120, and 180 minutes post injection, 25-50 μl of blood was sampled from the retro-orbital sinus. Blood was weighed and counted in an automated gamma counter (Packard Cobra II Auto Gamma, Perkin Elmer, Boston, Mass.). One mouse was excluded from the study based on macroscopic observations about the abnormal kidney morphology upon necropsy.
For statistical comparisons we employed GraphPad Prism 6 Software (GraphPad, La Jolla, Calif.). Two group comparisons were performed using a Student's T Test, comparisons between 3 or more groups were done using one way ANOVA. Pharmacokinetic parameters were calculated from the semi-log plot of time-activity curves using method of residuals.
Circulation kinetics of ^18F-FGA was studied over the course of 3 h. As shown in FIG. 6 (left panel), by 30 min, more than 99% of the injected dose was removed from circulation. […] Pharmacokinetic parameters were calculated from the 30-180 minute time points and are presented in tabular form (FIG. 6, right panel).

[2] = tested on: infarct region in brain (MCAO); assay: PET/SPECT imaging in middle cerebral artery occlusion (MCAO) mouse model of brain stroke; format: in vivo; details: for Uptake in stroke regions: MCAO mouse model, FIG. 13, PET or SPECT
Description: Fasted mice are anesthetized with 1.5% isoflurane in a stream of O2:N2 mixture (30:70, 1 L/min) and blanketed in a thermostatic blanket at 37° C. […] The common carotid artery is occluded by a micro-clip. The left ECA is ligated, coagulated, and cut distal to the cranial thyroid artery. A 15 mm monofilament nylon suture (6-0, dia of heat-rounded tip=0.2-0.3 mm) is inserted into the ECA and gently advanced through the ICA until its tip has occluded the origin of the MCA. Correct placement of the suture is indicated by a sudden drop of the local cortical blood flow in the left MCA territory to 10-20% of basal flow. CBF is monitored by non-invasive laser Doppler flowmetry (Moor Instruments). A sustained reduction of >80% is indicative of successful MCAO. The monofilament is secured in place with a ligature and the skin incision is closed. The monofilament suture is left in place for permanent MCAO, but for transient MCAO, the occluding suture is removed after 1 h by anesthetizing the mouse and re-opening the wound.
^18F-FGA was found, in the present work, to accumulate in the brain of a mouse model of brain stroke created by middle cerebral artery occlusion (MCAO). To test ^18F-FGA for imaging infarct in brain, we employed a mouse model of permanent MCAO. PET was performed after 2 h of MCAO surgery. Approximately 1 mCi of ^18F-FGA was injected (i.v.) and a 20 min image was acquired after 1 h of injection. […] We also performed 1 day post-MCAO imaging of brain excised after 2 h of ^18F-FGA injection.

[3] = Biodistribution of ^18F-FGA in normal mice; format: in vivo, CD1 mice; details: for Biodistribution, Blood / Biodistribution, Bone / Biodistribution, Brain / Biodistribution, Heart / Biodistribution, Kidney / Biodistribution, Liver / Biodistribution, Lung / Biodistribution, Muscle / Biodistribution, Spleen: i.v. 0.1 mCi, decay-corrected, mean ± SD
Description: All animal work described herein was performed according to the NIH Animal Use and Care Guidelines and was approved by the institutional IACUC. Nine male and three female CD1 mice (20-36 g) were obtained from Harlan Laboratories (Indianapolis, Ind.), and housed in a controlled environment with 12 h day/night cycle. The mice were allowed to acclimatize for at least 1 week before inclusion in the study. On the day of imaging, the animals were anesthetized with 2-3% isoflurane in oxygen stream. Approximately 100 μCi of ^18F-FGA was injected intravenously in the tail vein. The animals were placed in a cage with absorbent padding until biodistribution. Briefly, the mice were euthanized after 1 or 3 hours post injection by an over-dose of isoflurane (4%) followed by cervical dislocation. Various organs were excised, washed with saline, weighed, and appropriate tissue samples were counted in an automated gamma counter (Packard Cobra II Auto Gamma, Perkin Elmer, Boston, Mass.). Total blood volume, bone, and muscle mass were estimated as 5.7%, 10% and 40% of body weight, respectively. A diluted sample of injected ^18F-FGA served as a standard for comparison.
Results of a whole body distribution analysis of ^18F-FGA in various organs of normal mice 1 and 3 h after injection are shown in Table 1. Normal healthy mice were injected with ^18F-FGA (0.1 mCi) via the tail vein and the mice were euthanized at 1 h and 3 h post injection. […] All other organs accumulated less than 0.5% of the injected dose/g tissue. The concentration of ^18F-FGA in circulation was also negligible.
We injected 0.1 mCi (50 μl) of ^18F-FGA in normal healthy mice (n=8), and collected organs for counting at 1 h post-injection. The accumulation in the brain was less than about 0.1% and in all major organs was below 0.5% of the injected dose and it cleared via renal system. […] Rapid clearance and absence of accumulation in healthy cerebral tissue indicated effectiveness of ^18F-FGA for clear infarct imaging.

[4] = tested on: ISO-induced myocardial injury; assay: PET/SPECT imaging in rat model of ISO-induced myocardial damage; format: in vivo, Sprague Dawley rats; details: for Delineation of ISO-induced myocardial pathology by imaging: control vs ISO-treated rats
Description: (§1) Male Sprague Dawley rats (250-300 g) were purchased from Harlan (Indianapolis, Ind., USA), housed in regular light/dark cycles and allowed to acclimatize for at least 5 days prior to the experiments. Myocardial injury was induced by administering a sterile aqueous solution of ISO at a dose rate of 150 mg/kg bodyweight. The drug was intraperitoneally injected on two consecutive days.
In addition to the post-injury imaging, baseline images were also acquired before inducing ISO-injury. […] All injections were given intravenously in the tail vein of anesthetized (2% isoflurane-oxygen mixture) rats and imaging was performed at indicated times after the injections. Through the imaging period, anesthesia was maintained with a 2% isoflurane-oxygen mixture. For PET, the rats were positioned supine in a gantry of a PET-CT dual modality machine (Gamma Medica Ideas, Northridge, Calif.). A fly-mode CT of thoracic region was acquired before a 20 min list mode PET data acquisition. SPECT imaging was performed on a NanoSPECT machine (Trifoil Imaging, Chatsworth, Calif.) by helical SPECT acquisition of the thoracic region in 24 frames of 60 seconds each. After imaging, the rats were allowed to wake up and kept in their cage until the time of euthanasia.
The acquired PET images was reconstructed by filtered back projection algorithm and fused with the CT to generate a composite PET-CT image. SPECT acquisitions were reconstructed with HiSPECT reconstruction algorithm provided with the system.
Standard uptake value (SUV) was calculated by defining a three-dimensional region of interest (ROI) around the heart using the CT image. Background was determined by placing a spherical ROI at the same level as the 4th sternebrae in the XY plane in the posterior medial area of the left lung. Mean counts per voxel for the heart were normalized to mean background counts per voxel.

rats = assay: ISO-induced myocardial injury in rats (ECG, cardiac troponin I, corticosterone, TTC staining); format: in vivo, Sprague Dawley rats
Description: as §1
Lead 1 ECG of isoflurane-anesthetized rats was recorded by placing negative electrode on the right front paw, positive electrode on the left front paw, and ground lead on to the left hind paw. The electrodes were secured to the lead (CB Sciences C-ISO-255), bioamplifier (ETH-225), and analog to digital converter (iWorx 118) and the signal was recorded using Labscribe 2.0 software (iWorx, Dover, N.H.). Before analysis of raw data, the signal was filtered to eliminate 60 Hz mains frequency.
Blood samples were collected before euthanasia and plasma was separated by centrifugation (5,000 rpm for 5 min). We determined the levels of cardiac TnI (cTnI) in plasma by using a rat-specific enzyme-linked immunoassay kit obtained from Life Diagnostics (West Chester, Pa.). The plasma samples were diluted 1:2 with PBS before estimation.
We measured the concentration of stress hormone corticosterone in undiluted plasma by using an ELISA kit from Cayman Chemicals (Ann Arbor, Mich.). Corticosterone is the only glucocorticoid present in rats.
After the final session of imaging and blood sample collection, the rats were euthanized and their hearts were immediately collected and frozen at −20° C. for 2 h. The hearts were sectioned into 2 mm slices and placed in 1% solution of TTC in PBS at 37° C. with intermittent shaking. After 30 min of staining, the TTC was removed and replaced with 10% buffered fomialin overnight.

[5] = normal healthy mice (n=8), 0.1 mCi, 1 h post-injection
[6] = normal mice, 1 and 3 h after injection

O=C(O)[C@@H](O)[C@@H](O)[C@H](O)[C@@H]([18F])C(=O)O [^18F-FGA, 2-deoxy-2-[^18F]fluoroglucaric acid]
Elimination rate constant [1]: 0.83 h⁻¹
Half-life [1]: approximately 35 minutes
Ipsilateral vs contralateral accumulation in excised brain ([2]; 1 day post-MCAO, brain excised 2 h after injection): higher accumulation in the ipsilateral side than the contralateral side
Uptake in stroke regions [2]: accumulates in stroke regions of ipsilateral cerebral hemisphere
Accumulation in ipsilateral side of brain ([2]; permanent MCAO, PET after 2 h of MCAO, 1 mCi i.v., image 1 h after injection): central area of ^18F-FGA accumulation
Accumulation in all major organs [3, 5]: below 0.5 % of the injected dose
Accumulation in the brain [3, 5]: less than 0.1 % of the injected dose
Accumulation in all other organs (other than renal system) [3, 6]: less than 0.5 % of the injected dose/g tissue
Concentration in circulation [3, 6]: negligible
Fate of the majority of injected radioactivity [3, 6]: excreted via the renal system
Biodistribution, Blood ([3]; normal mice, 1 hour (n = 8)): 0.145 ± 0.095 % ID/g tissue
Biodistribution, Bone ([3]; normal mice, 1 hour (n = 8)): 0.321 ± 0.128 % ID/g tissue
Biodistribution, Brain ([3]; normal mice, 1 hour (n = 8)): 0.039 ± 0.027 % ID/g tissue
Biodistribution, Heart ([3]; normal mice, 1 hour (n = 8)): 0.056 ± 0.027 % ID/g tissue
Biodistribution, Kidney ([3]; normal mice, 1 hour (n = 8)): 4.226 ± 3.281 % ID/g tissue
Biodistribution, Liver ([3]; normal mice, 1 hour (n = 8)): 0.417 ± 0.128 % ID/g tissue
Biodistribution, Lung ([3]; normal mice, 1 hour (n = 8)): 0.192 ± 0.087 % ID/g tissue
Biodistribution, Muscle ([3]; normal mice, 1 hour (n = 8)): 0.049 ± 0.025 % ID/g tissue
Biodistribution, Spleen ([3]; normal mice, 1 hour (n = 8)): 0.074 ± 0.036 % ID/g tissue
Biodistribution, Blood ([3]; normal mice, 3 hour (n = 4)): 0.051 ± 0.025 % ID/g tissue
Biodistribution, Bone ([3]; normal mice, 3 hour (n = 4)): 0.727 ± 0.773 % ID/g tissue
Biodistribution, Brain ([3]; normal mice, 3 hour (n = 4)): 0.014 ± 0.007 % ID/g tissue
Biodistribution, Heart ([3]; normal mice, 3 hour (n = 4)): 0.018 ± 0.01 % ID/g tissue
Biodistribution, Kidney ([3]; normal mice, 3 hour (n = 4)): 0.698 ± 0.378 % ID/g tissue
Biodistribution, Liver ([3]; normal mice, 3 hour (n = 4)): 0.087 ± 0.027 % ID/g tissue
Biodistribution, Lung ([3]; normal mice, 3 hour (n = 4)): 0.104 ± 0.073 % ID/g tissue
Biodistribution, Muscle ([3]; normal mice, 3 hour (n = 4)): 0.03 ± 0.018 % ID/g tissue
Biodistribution, Spleen ([3]; normal mice, 3 hour (n = 4)): 0.033 ± 0.015 % ID/g tissue
Accumulation in cardiac tissue of ISO-treated rats ([4]; PET, 1 h post-injection, after two consecutive days of ISO): accumulated large amounts
Time to accumulation in ISO-treated hearts ([4]; PET, ISO-treated rats): ≤ 1 h
Contrast between accumulation in myocardial tissue and non-target tissues ([4]; PET, ISO-treated rats, 4 h post-injection): very pronounced
Uptake in normal (baseline/control) heart ([4]; PET, rats without ISO treatment): negligible uptake; also recorded: no detectable signal
Delineation of ISO-induced myocardial pathology by imaging [4]: clearly diagnosed ISO-induced cardiomyopathy

[C-]#[N+]CC(C)(C)OC.[C-]#[N+]CC(C)(C)OC.[C-]#[N+]CC(C)(C)OC.[C-]#[N+]CC(C)(C)OC.[C-]#[N+]CC(C)(C)OC.[C-]#[N+]CC(C)(C)OC.[Tc] [^99mTc-Sestamibi, ^99mTc-sesta-methoxyisobutylisonitrile, reference compound]
Delineation of ISO-induced myocardial pathology by imaging [4]: unable to delineate ISO-induced myocardial pathology

C/C(=N\[O-])[C@@H](C)[N-]CC(C)(C)C[N-][C@H](C)/C(C)=N/O.[O]=[99Tc+3] (racemic) [HMPAO, reference compound]
Uptake in stroke regions [2]: deficient uptake in stroke regions

CC(C)NCC(O)c1ccc(O)c(O)c1 (stereo not shown) [ISO, isoproterenol]
Cardiac troponin in plasma (rats; ISO-treated rats (n=4), 150 mg/kg i.p. on two consecutive days, plasma 24-48 hours after ISO): 63 pg/mL
Plasma level of corticosterone (rats; ISO-treated rats (n=6), 150 mg/kg i.p. on two consecutive days): 34.1 ng/mL
Heart histology (Evans blue, TTC staining) (rats; rats, after two consecutive days of ISO injection): generalized and extensive necrosis
ST duration (ECG) (rats; rats, over the course of ISO treatment): increased
R-R interval (ECG) (rats; rats, same day of ISO treatment): significantly decreased
